Laboratory results as given in patent publication US20260248799A1, “COMBINATIONS OF RETINALDEHYDE DEHYDROGENASE 1 (RALDH1) INHIBITORS AND IMMUNOSTIMULATORS AND METHODS USING SAME” (The Trustees of the University of Pennsylvania, priority 2023, published 2026).

What was measured:
Adenosine A1 = target: T1, Adenosine A1 (Homo sapiens, UniProt P30542); test: Safetyscreen: Adenosine A1; format: binding; settings: read-out: % Inh. Adenosine A1
T1 construct: Eurofins Cerep Panlabs (contract panel)

Cannabinoid CB2 = target: T2, Cannabinoid CB2 (Homo sapiens, UniProt P34972); test: Safetyscreen: CB2; format: binding; settings: read-out: % Inh. Cannabinoid CB2
T2 construct: purchased Eurofins Cereps Panlabs
T2 sequence (P34972 whole entry): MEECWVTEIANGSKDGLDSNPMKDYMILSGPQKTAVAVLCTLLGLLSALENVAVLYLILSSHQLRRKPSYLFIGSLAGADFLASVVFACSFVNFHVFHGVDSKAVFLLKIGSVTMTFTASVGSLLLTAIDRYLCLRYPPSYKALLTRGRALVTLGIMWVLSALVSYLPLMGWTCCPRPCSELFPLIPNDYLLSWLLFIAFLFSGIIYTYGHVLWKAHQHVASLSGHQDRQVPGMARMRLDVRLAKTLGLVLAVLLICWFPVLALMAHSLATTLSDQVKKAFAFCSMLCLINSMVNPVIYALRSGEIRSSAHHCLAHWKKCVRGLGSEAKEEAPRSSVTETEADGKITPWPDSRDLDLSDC

[1] = test system: Glutamate, NMDA, Polyamine; test: Safetyscreen: NMDA, Polyamine; format: binding, rat; settings: 10 μM
[2] = target: T3, Platelet Activating Factor (PAF) (Homo sapiens, UniProt P25105); test: Safetyscreen: PAF; format: binding; settings: read-out: % Inh. Platelet Activating Factor (PAF)
T3 construct: Eurofins Cereps Panlabs (contract panel)
T3 sequence (P25105 whole entry): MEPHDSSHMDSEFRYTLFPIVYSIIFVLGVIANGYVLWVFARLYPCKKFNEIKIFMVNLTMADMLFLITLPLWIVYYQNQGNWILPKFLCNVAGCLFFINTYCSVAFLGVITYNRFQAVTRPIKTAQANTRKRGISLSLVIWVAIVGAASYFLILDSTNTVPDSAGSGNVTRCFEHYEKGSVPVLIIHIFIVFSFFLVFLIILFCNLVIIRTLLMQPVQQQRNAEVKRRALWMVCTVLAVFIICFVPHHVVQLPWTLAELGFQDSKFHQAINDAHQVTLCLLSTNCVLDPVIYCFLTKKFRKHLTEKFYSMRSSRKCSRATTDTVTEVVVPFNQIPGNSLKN

GABABIA = target: T4, GABABIA (Homo sapiens, UniProt Q9UBS5); test: Safetyscreen: GABABIA; format: binding; settings: read-out: % Inh. GABABIA
T4 construct: purchased Eurofins Cereps Panlabs

Glucocorticoid = target: T5, Glucocorticoid (Homo sapiens, UniProt P04150); test: Safetyscreen: Glucocorticoid; format: binding; settings: read-out: % Inh. Glucocorticoid
T5 construct: purchased Eurofins Cereps Panlabs
T5 sequence (P04150 whole entry): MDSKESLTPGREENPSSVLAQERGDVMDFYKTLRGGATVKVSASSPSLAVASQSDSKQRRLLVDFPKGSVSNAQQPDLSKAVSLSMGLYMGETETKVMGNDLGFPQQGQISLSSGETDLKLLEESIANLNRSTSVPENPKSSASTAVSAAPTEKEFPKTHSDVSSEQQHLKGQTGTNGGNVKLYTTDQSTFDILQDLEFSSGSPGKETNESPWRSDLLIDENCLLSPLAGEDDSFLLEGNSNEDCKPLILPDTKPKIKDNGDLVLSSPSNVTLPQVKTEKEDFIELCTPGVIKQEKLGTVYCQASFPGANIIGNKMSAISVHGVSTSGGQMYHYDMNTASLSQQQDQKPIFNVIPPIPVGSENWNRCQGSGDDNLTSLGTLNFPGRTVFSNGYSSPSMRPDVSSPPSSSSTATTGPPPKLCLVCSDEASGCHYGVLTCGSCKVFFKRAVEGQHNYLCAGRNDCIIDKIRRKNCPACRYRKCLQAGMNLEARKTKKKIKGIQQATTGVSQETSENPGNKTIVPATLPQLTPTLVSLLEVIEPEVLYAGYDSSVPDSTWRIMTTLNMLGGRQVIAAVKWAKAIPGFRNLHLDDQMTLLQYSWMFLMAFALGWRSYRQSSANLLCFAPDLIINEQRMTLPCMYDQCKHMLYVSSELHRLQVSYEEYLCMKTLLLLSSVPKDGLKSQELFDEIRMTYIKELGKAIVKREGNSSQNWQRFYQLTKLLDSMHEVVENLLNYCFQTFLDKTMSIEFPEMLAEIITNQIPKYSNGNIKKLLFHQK

[3] = test system: GABAA, Ro-15-1788, Hippocampus; test: Safetyscreen: GABAA, Ro-15-1788; format: binding, rat; settings: 10 μM
Vasopressin V1A = target: T6, Vasopressin V1A (Homo sapiens, UniProt P37288); test: Safetyscreen: Vasopressin V1A; format: binding; settings: read-out: % Inh. Vasopressin V1A
T6 construct: purchased Eurofins Cereps Panlabs
T6 sequence (P37288 whole entry): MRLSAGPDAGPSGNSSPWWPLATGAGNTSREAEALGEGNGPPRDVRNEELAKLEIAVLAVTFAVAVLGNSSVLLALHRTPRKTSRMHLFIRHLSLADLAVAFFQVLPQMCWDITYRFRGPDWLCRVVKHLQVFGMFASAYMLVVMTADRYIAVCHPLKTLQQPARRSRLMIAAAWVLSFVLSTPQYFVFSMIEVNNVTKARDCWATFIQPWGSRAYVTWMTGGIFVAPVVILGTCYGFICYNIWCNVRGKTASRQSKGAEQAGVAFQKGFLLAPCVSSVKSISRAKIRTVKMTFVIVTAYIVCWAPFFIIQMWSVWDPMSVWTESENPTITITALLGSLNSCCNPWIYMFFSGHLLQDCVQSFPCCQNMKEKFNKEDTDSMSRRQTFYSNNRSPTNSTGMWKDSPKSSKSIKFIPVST

[4] = test system: macrophages from primary human monocytes; test: Numbers of live monocyte-derived macrophages in vitro; format: cell-based; settings: C86 treated TCM or BMS493; three days
Method: FIGS. 24A-24E: Raldh1-INH blocks tumor supportive functions of monocytes and macrophages. FIG. 24A: Circulating primary human monocytes were collected from donors and cultured with MCSF (50 ng/mL) to generate macrophages. On day 3 of these cultures, DMSO or RA (100 nmol/L) was added to generate control monocyte-derived macrophages (Control-MoDM) or RA monocyte-derived macrophages (RA-MoDM), respectively. On day 7 of these cultures, macrophages were collected for each well after washing with 1×PBS, mixed with Huh7 cells at approximately 50:50 ratio, and the mix injected into the flanks of NU/J mice. Huh7 tumors cells that were not mixed with any macrophages before flank injection served as an additional control. Tumor volume was measured every 2 days (left graph). 19 days after tumor injection, mice were sacrificed and tumor weight (right graph) was measured. […] Three or more independent experiments were performed with at least three replicates per experimental group. Unpaired t test, two-tailed. […] Tumor growth was monitored daily (left graph). 13 days after tumor cell transplantation, mice were sacrificed and tumor weight measured (right graph). […] Three days later, cells were harvested, counted, and stained with PI for FCS analyses. […] Cell proliferation was measured by counting live cell numbers (y-axis). […] 72 hours later, the cells were washed, counted, and analyzed by FCS. […]

[5] = target: T7, Protein Tyrosine Kinase, LCK (Homo sapiens, UniProt P06239); test: Safetyscreen: LCK; format: biochemical; settings: read-out: % Inh. Protein Tyrosine Kinase, LCK
T7 construct: Eurofins Cerep Panlabs (contract panel)
T7 sequence (P06239 whole entry): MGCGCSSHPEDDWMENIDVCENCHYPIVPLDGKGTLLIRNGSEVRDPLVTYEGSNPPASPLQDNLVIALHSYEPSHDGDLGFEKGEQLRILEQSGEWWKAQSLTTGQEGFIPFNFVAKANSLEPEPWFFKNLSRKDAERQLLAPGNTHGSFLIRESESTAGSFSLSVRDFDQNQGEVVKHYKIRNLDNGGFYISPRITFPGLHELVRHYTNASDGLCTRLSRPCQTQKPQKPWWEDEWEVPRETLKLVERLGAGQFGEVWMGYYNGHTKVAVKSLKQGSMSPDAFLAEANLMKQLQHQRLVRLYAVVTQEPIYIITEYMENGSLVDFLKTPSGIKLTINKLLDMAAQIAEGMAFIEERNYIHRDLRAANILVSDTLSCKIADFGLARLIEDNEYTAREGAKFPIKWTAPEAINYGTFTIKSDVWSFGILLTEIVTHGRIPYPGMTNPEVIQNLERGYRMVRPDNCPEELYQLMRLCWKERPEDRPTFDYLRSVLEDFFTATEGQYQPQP

Cyclooxygenase COX-2 = target: T8, Cyclooxygenase COX-2 (Homo sapiens, UniProt P35354); test: Safetyscreen: COX-2; format: biochemical; settings: read-out: % Inh. Cyclooxygenase COX-2
T8 construct: Eurofins Cerep Panlabs (contract panel)
T8 sequence (P35354 18-604): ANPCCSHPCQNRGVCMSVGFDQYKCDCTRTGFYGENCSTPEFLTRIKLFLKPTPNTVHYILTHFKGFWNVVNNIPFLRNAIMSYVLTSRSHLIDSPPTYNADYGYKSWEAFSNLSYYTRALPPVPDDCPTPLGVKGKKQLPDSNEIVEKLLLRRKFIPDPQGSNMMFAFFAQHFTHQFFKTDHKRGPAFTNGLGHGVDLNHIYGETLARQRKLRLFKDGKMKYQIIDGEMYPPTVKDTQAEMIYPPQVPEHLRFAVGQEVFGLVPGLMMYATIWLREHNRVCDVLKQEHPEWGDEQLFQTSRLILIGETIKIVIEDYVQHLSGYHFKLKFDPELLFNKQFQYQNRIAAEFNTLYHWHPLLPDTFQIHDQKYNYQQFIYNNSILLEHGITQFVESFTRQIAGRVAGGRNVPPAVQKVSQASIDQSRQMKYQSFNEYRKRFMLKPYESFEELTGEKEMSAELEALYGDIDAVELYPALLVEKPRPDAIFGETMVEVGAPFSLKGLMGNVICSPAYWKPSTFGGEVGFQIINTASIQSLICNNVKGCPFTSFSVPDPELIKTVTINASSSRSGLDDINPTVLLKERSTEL

[6] = target: T9, Serotonin (5-Hydroxytryptamine) 5-HT3 (Homo sapiens, UniProt P46098); test: Safetyscreen: 5-HT3; format: binding; settings: read-out: % Inh. Serotonin (5-Hydroxytryptamine) 5-HT3
T9 construct: Eurofins Cereps Panlabs (contract panel)
T9 sequence (P46098 24-478): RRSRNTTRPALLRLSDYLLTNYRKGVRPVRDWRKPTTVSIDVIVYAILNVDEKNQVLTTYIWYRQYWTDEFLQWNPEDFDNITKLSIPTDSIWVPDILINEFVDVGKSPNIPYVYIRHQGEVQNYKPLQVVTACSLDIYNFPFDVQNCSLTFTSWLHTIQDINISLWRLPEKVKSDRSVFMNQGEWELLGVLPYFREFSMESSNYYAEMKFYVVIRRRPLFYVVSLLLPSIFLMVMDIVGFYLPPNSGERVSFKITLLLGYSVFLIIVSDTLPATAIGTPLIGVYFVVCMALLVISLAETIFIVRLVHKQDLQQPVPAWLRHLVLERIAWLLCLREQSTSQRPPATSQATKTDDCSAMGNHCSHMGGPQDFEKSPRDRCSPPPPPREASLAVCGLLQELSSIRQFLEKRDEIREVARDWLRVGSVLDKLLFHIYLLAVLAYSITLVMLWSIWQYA

Chemokine CXCR2 (IL-8RB) = target: T10, Chemokine CXCR2 (IL-8RB) (Homo sapiens, UniProt P25025); test: Safetyscreen: CXCR2; format: binding; settings: read-out: % Inh. Chemokine CXCR2 (IL-8RB)
T10 construct: purchased Eurofins Cereps Panlabs
T10 sequence (P25025 whole entry): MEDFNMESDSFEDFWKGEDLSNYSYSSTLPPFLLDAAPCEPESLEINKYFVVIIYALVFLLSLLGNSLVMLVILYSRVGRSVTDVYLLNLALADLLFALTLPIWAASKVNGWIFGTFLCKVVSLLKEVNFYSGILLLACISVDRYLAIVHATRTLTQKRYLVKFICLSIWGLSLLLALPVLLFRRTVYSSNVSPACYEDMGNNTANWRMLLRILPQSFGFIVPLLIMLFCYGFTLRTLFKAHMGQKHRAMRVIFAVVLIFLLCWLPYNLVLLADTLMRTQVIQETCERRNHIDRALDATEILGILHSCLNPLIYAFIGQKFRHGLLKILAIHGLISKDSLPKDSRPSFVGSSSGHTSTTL

[7] = Chow PK of C86, 15-day study in CD-1 mice; format: in vivo, mouse; settings: 15-day period
Method: FIG. 31A: Completed blood count (CBC) was performed at IDEXX on whole blood collected from indicated RALDH1 genotypes (X-axis). One experiment with four replicates per experimental group. One-way ANOVA. *p<0.05, **p<0.01, ***p<0.001. FIG. 31B: Weights of mice of the indicated RALDH1 genotypes. Siblings were used for all genotypes to control for confounding factors. One experiment with four replicates per experimental group. One-way ANOVA. *p<0.05, **p<0.01, ***p<0.001. […] Diet (or PO) #A, B, and C (shown in the inbox of individual graphs) corresponds to drug dose of 10, 30, and 60 mg/kg respectively. Mice had free access to food and water during the 15-day study.
The PK studies were done at NIH or a commercial CRO—Pharmacon using their in-house standard protocol. […] For C99, IV and PO, performed at NIH using CD-1 mice; formulation: 20% HPbCD in saline.

[8] = target: T11, Serotonin (5-Hydroxytryptamine) 5-HT2C (Homo sapiens, UniProt P28335); test: Safetyscreen: 5-HT2C; format: binding; settings: read-out: % Inh. Serotonin (5-Hydroxytryptamine) 5-HT2C
T11 construct: Eurofins Cereps Panlabs (contract panel)
T11 sequence (P28335 33-458): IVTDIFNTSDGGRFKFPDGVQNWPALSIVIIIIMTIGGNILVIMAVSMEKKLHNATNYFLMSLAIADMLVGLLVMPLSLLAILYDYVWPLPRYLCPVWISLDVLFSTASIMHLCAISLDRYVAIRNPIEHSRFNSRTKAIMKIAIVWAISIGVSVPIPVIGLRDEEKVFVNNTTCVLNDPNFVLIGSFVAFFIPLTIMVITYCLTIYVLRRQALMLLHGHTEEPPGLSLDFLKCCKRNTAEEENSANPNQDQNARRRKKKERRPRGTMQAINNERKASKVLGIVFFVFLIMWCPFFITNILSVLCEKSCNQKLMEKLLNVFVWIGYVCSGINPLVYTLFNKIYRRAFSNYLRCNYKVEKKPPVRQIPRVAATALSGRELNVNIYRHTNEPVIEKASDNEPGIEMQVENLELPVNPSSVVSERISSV

T1 sequence (P30542 whole entry): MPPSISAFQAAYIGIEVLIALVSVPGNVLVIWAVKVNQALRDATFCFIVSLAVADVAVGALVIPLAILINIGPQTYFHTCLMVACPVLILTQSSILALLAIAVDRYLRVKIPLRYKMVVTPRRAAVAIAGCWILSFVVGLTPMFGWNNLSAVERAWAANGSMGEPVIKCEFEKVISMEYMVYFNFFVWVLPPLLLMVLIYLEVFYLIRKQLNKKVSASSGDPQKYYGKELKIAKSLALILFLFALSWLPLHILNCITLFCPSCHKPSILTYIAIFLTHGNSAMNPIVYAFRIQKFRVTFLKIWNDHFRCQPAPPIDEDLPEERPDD

CS(=O)(=O)N1CCN(C(=O)c2cnc3ccc(F)cc3c2N2CCC(C#N)(c3ccccc3)CC2)CC1 [Compound C-86, 1-(6-fluoro-3-(4-(methylsulfonyl)piperazine-1-carbonyl)quinolin-4-yl)-4-phenylpiperidine-4-carbonitrile]
inhibition at 10 µM (Adenosine A1): 4%
inhibition at 10 µM (Cannabinoid CB2): 21%
% Inh. Glutamate, NMDA, Polyamine [1]: 1%
inhibition at 10 µM [2]: 32%
inhibition at 10 µM (GABABIA): 7%
inhibition at 10 µM (Glucocorticoid): 9%
% Inh. GABAA, Ro-15-1788, Hippocampus [3]: −7%
inhibition at 10 µM (Vasopressin V1A): -13%
RA and tumor-CM induced increase in macrophage numbers [4]: reversed
inhibition at 10 µM [5]: 3%
inhibition at 10 µM (Cyclooxygenase COX-2): 0%
inhibition at 10 µM [6]: 2%
inhibition at 10 µM (Chemokine CXCR2 (IL-8RB)): 8%
drug exposure over time ([7]; chow, 10, 30 and 60 mg/kg): consistent drug exposure over time
body weight ([7]; chow): without affecting body weight
inhibition at 10 µM [8]: 22%
